Reference: the supplement of paper PMC10307832

Compound: C1=CC2=NC=CN=C2C=C1/C=C/3\C(=O)NC(=O)S3 + CC(=O)Nc1cccc(-n2c(=O)n(C3CC3)c(=O)c3c(Nc4ccc(I)cc4F)n(C)c(=O)c(C)c32)c1 [Trametinib] (partner 0.02 µM)
Test: relative viability (nuclei count vs DMSO), 5 days (fraction); higher = more cells survive
Conditions: first compound 0.02 µM
Outline: (§1)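 Dosing by pin tool came one day after lung cancer cell lines were seeded in 1536-well plates, using either one drug or a fixed anchor-drug dose plus five library-drug doses (not always all listed) in √10 steps. After 5 days, nuclei were counted on 4× images. Relative viability is treated-well nuclei count divided by vehicle-well nuclei count, and values are medians of duplicate plates.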

Point of comparison: PC-14, relative viability 0.702. Against it:
- EKVX — lower, 0.301
- LC-2-ad — higher, 0.884
- NCI-H1975 — lower, 0.273
- RERF-LC-KJ — higher, 0.815
- NCI-H650 — higher, 0.971
- PC-3 [JPC-3] — lower, 0.627

Same assay, conditions: first compound 0.06325 µM

Point of comparison: LC-2-ad, relative viability 0.991. Against it:
- PC-14 — higher, 1.16
- EKVX — lower, 0.392
- NCI-H1975 — lower, 0.361
- RERF-LC-KJ — lower, 0.878
- NCI-H650 — lower, 0.927
- PC-3 [JPC-3] — lower, 0.772

Same assay, conditions: first compound 0.2 µM

Point of comparison: NCI-H1975, relative viability 0.355. Against it:
- PC-14 — higher, 0.835
- EKVX — lower, 0.32
- LC-2-ad — higher, 0.931
- RERF-LC-KJ — higher, 0.88
- NCI-H650 — higher, 1.3
- PC-3 [JPC-3] — higher, 0.734

Same assay, conditions: first compound 0.6325 µM

Point of comparison: NCI-H1975, relative viability 0.33. Against it:
- PC-14 — higher, 0.738
- EKVX — lower, 0.322
- LC-2-ad — higher, 0.972
- RERF-LC-KJ — higher, 0.738
- NCI-H650 — higher, 0.994
- PC-3 [JPC-3] — higher, 0.736

Same assay, conditions: first compound 2 µM

Point of comparison: LC-2-ad, relative viability 0.83. Against it:
- PC-14 — higher, 0.938
- EKVX — lower, 0.33
- NCI-H1975 — lower, 0.241
- RERF-LC-KJ — lower, 0.62
- NCI-H650 — lower, 0.69
- PC-3 [JPC-3] — lower, 0.646

Compound: C1=CC2=NC=CN=C2C=C1/C=C/3\C(=O)NC(=O)S3 + CC(C)C[C@H](NC(=O)[C@H](Cc1ccccc1)NC(=O)c1cnccn1)B(O)O [Bortezomib] (partner 0.002 µM)
Test: as above
Conditions: first compound 0.02 µM
Outline: as §1

Point of comparison: NCI-H650, relative viability 0.977. Against it:
- PC-14 — lower, 0.726
- EKVX — lower, 0.906
- LC-2-ad — lower, 0.964
- NCI-H1975 — lower, 0.355
- RERF-LC-KJ — higher, 1.25
- PC-3 [JPC-3] — lower, 0.735

Same assay, conditions: first compound 0.06325 µM

Point of comparison: NCI-H1975, relative viability 0.365. Against it:
- PC-14 — higher, 0.816
- EKVX — higher, 1.07
- LC-2-ad — higher, 1.02
- RERF-LC-KJ — higher, 1.17
- NCI-H650 — higher, 0.775
- PC-3 [JPC-3] — higher, 0.853

Same assay, conditions: first compound 0.2 µM

Point of comparison: NCI-H1975, relative viability 0.401. Against it:
- PC-14 — higher, 0.81
- EKVX — higher, 0.969
- LC-2-ad — higher, 1.09
- RERF-LC-KJ — higher, 1.23
- NCI-H650 — higher, 0.907
- PC-3 [JPC-3] — higher, 0.879

Same assay, conditions: first compound 0.6325 µM

Point of comparison: PC-3 [JPC-3], relative viability 0.851. Against it:
- PC-14 — higher, 0.882
- EKVX — higher, 0.911
- LC-2-ad — higher, 0.943
- NCI-H1975 — lower, 0.368
- RERF-LC-KJ — higher, 1.14
- NCI-H650 — lower, 0.78

Same assay, conditions: first compound 2 µM

Point of comparison: NCI-H650, relative viability 0.379. Against it:
- PC-14 — higher, 0.81
- EKVX — higher, 0.871
- LC-2-ad — higher, 0.829
- NCI-H1975 — lower, 0.36
- RERF-LC-KJ — higher, 1.11
- PC-3 [JPC-3] — higher, 0.852

Compound: C1=CC2=NC=CN=C2C=C1/C=C/3\C(=O)NC(=O)S3 + Nc1ncn([C@H]2C[C@H](O)[C@@H](CO)O2)c(=O)n1 [Decitabine] (partner 2 µM)
Test: as above
Conditions: first compound 0.02 µM
Outline: as §1

Point of comparison: PC-14, relative viability 0.242. Against it:
- EKVX — higher, 0.258
- LC-2-ad — higher, 0.781
- NCI-H1975 — higher, 0.362
- RERF-LC-KJ — higher, 0.596
- NCI-H650 — higher, 0.32
- PC-3 [JPC-3] — higher, 0.785

Same assay, conditions: first compound 0.06325 µM

Point of comparison: RERF-LC-KJ, relative viability 0.726. Against it:
- PC-14 — lower, 0.272
- EKVX — lower, 0.399
- LC-2-ad — higher, 0.862
- NCI-H1975 — lower, 0.359
- NCI-H650 — lower, 0.287
- PC-3 [JPC-3] — higher, 0.911

Same assay, conditions: first compound 0.2 µM

Point of comparison: RERF-LC-KJ, relative viability 0.681. Against it:
- PC-14 — lower, 0.237
- EKVX — lower, 0.287
- LC-2-ad — higher, 0.84
- NCI-H1975 — lower, 0.436
- NCI-H650 — lower, 0.356
- PC-3 [JPC-3] — higher, 0.822

Same assay, conditions: first compound 0.6325 µM

Point of comparison: PC-3 [JPC-3], relative viability 0.801. Against it:
- PC-14 — lower, 0.204
- EKVX — lower, 0.337
- LC-2-ad — higher, 0.86
- NCI-H1975 — lower, 0.37
- RERF-LC-KJ — lower, 0.632
- NCI-H650 — lower, 0.319

Same assay, conditions: first compound 2 µM

Point of comparison: PC-14, relative viability 0.275. Against it:
- EKVX — higher, 0.373
- LC-2-ad — higher, 0.727
- NCI-H1975 — higher, 0.359
- RERF-LC-KJ — higher, 0.628
- NCI-H650 — higher, 0.342
- PC-3 [JPC-3] — higher, 0.868

Compound: CCN1CCN(c2ccc(Nc3cc(N(C)C(=O)Nc4c(Cl)c(OC)cc(OC)c4Cl)ncn3)cc2)CC1 [BGJ398] + C[C@@H](Oc1cc(-c2cnn(C3CCNCC3)c2)cnc1N)c1c(Cl)ccc(F)c1Cl [Crizotinib] (partner 1 µM)
Test: as above
Conditions: first compound 0.01 µM
Outline: as §1

Point of comparison: EKVX, relative viability 0.819. Against it:
- PC-14 — higher, 0.925
- LC-2-ad — lower, 0.446
- NCI-H1975 — higher, 1.03
- RERF-LC-KJ — lower, 0.807
- NCI-H650 — lower, 0.57
- PC-3 [JPC-3] — higher, 1.02

Same assay, conditions: first compound 0.03162 µM

Point of comparison: LC-2-ad, relative viability 0.451. Against it:
- PC-14 — higher, 0.883
- EKVX — higher, 0.919
- NCI-H1975 — higher, 0.979
- RERF-LC-KJ — higher, 0.928
- NCI-H650 — higher, 0.791

Same assay, conditions: first compound 0.1 µM

Point of comparison: LC-2-ad, relative viability 0.444. Against it:
- PC-14 — higher, 0.859
- EKVX — higher, 0.901
- NCI-H1975 — higher, 1.1
- RERF-LC-KJ — higher, 0.852
- NCI-H650 — higher, 0.808
- PC-3 [JPC-3] — higher, 1.09

Same assay, conditions: first compound 0.3162 µM

Point of comparison: EKVX, relative viability 0.991. Against it:
- PC-14 — lower, 0.937
- LC-2-ad — lower, 0.487
- NCI-H1975 — higher, 1.07
- RERF-LC-KJ — lower, 0.871
- NCI-H650 — lower, 0.857
- PC-3 [JPC-3] — lower, 0.971

Same assay, conditions: first compound 1 µM

Point of comparison: RERF-LC-KJ, relative viability 0.788. Against it:
- PC-14 — higher, 0.898
- EKVX — higher, 0.917
- LC-2-ad — lower, 0.476
- NCI-H1975 — higher, 0.948
- NCI-H650 — lower, 0.727
- PC-3 [JPC-3] — higher, 0.961
